Test results: patent US20070111251A1, “Chemical address tags” (priority 2003, published 2007)

What was measured:
mitochondria = experiment: QSLR factorial logistic regression of mitochondrial localization (affinity coefficients, cross-validated prediction); set-up: species or system human; conditions: for αi^mito: influence of A group on mitochondrial localization, greater = stronger; for estimated A group affinity coefficient ai / estimated B group affinity coefficient bj: mitochondrial affinity; for estimated A group affinity coefficient ai: ±5 for groups always or never mitochondrial; for βj^mito: influence of B group on mitochondrial localization
Source text: The first column and first row contain the A group and B group labels. The second column and second row contain the estimated A group and B group affinity coefficients (ai and bj respectively). The interior of the table contains the value sij=ai+bj for each compound (where positive values of sij indicate predicted localization to mitochondria, and negative values of sij indicate predicted localization to a non-mitochondrial compartment). The subscript m indicates experimentally determined mitochondrial localization. The subscript o indicates experimentally determined non-mitochondrial localization. The darkened boxes indicate correctly predicted mitochondrial localizations under cross-validation.
Based on this matrix, factorial logistic regression (See, A. Agresti, Categorical Data Analysis, Wiley [2002]) was used to calculate mitochondrial affinity coefficients (ai and bj) for each A and B moiety. (Table 1). Since it is not necessary to observe all possible pairings between A and B building blocks to estimate the affinity coefficients, the QSLR approach can predict localization of unmeasured styryl molecules based on a minimal set of experimentally-determined localizations (see Methods). The methods of the present invention allow assessment of predictivity using the cross-validation technique by holding out one compound and fitting the affinity coefficients using the remaining compounds, predictivity can be assessed by comparing the actual localization of the held-out compound to its predicted localization. Repeating this for every measured compound in the library yields an error rate for the procedure.
Briefly, this technique assigns quantitative scores to each A group (αi^mito) and to each B group (βj^mito), in such a way that αi^mito+βj^mito is positive for compounds with mitochondrial localization, and is negative for compounds lacking mitochondrial localization. […] In additional embodiments, same analysis can be applied to organelles other than mitochondria, provided there are a sufficient number of localizations to specific non-mitochondrial organelles in the combinatorial library of interest for reliable statistical calculations.
In certain embodiments, the predictive performance of the above method was assessed using a cross-validation approach by calculating the proportion of all compounds that are correctly predicted. For cross-validation, each styryl product was set aside in sequence, and the factorial logistic model was fit to the remaining data. Then the resulting A and B scores for the held-out compound were summed. If the sum was positive, the held-out compound was predicted to be mitochondrial, while if the sum was negative, the held-out compound was predicted to be non-mitochondrial. […] The baseline performance of the method scored 104 correct out of 145, or 72%. This number is highly statistically significant compared to random guessing (p-value ˜10^−7). Thus, across the entire library, A and B moieties appear to contribute to localization in an independent, additive fashion.
In some embodiments, subcellular localization data were converted to binary (0/1) values by assigning a value Gij=1 if compound i,j localized to mitochondria (even if it localized to other […] as well), and assigning Gij=0 if compound i,j localized exclusively to any non-mitochondrial cellular structure. Compounds with no localization were omitted from this part of the analysis. The αi and βj coefficients for A or B groups that are always observed to localize to mitochondria, or that never localize to mitochondria, were set to +/−5, respectively. The binary localization data were analyzed using factorial logistic regression. […]

[1] = Additive decomposition of peak excitation and emission wavelengths (model coefficients of A and B groups); conditions: for αi^em: influence of A group on peak emission wavelength; for αi^em / αi^ex: A group 1 as baseline; for αi^ex: influence of A group on peak excitation wavelength; for βj^em: influence of B group on peak emission wavelength; for βj^em / βj^ex: B group 1 as baseline; for βj^ex: influence of B group on peak excitation wavelength
Source text: The chemical structure of the styryl library is illustrated in FIG. 3. […] Initial analysis focused on measurements of peak emission and excitation wavelength obtained for all styryl products showing a single, localized peak (there were 256 such compounds for emission wavelength, and 193 compounds for excitation wavelength). […] The wavelength for the styryl compound formed by joining A group i with B group j is denoted as λij (or more specifically, λij^ex for excitation wavelength and λij^em for emission wavelength). The additive model λij=ai+βj+εij was fit to the data using least squares yielding parameters αi^ex, αi^em, βj^ex, and βj^em that quantify the influence of each A and B group on the spectrum of the styryl product. […] (FIGS. 8A-8B). […] The predictions were made ignoring interactions between the two functional moieties in the styryl compound. The predicted values were obtained without bias, by holding out the data point to be predicted when training the model.
In preferred embodiments, using the cross-validation approach disclosed herein, each compound was held out in sequence, the model was trained using the remaining compounds, then the wavelength value for the held-out compound was predicted based on the resulting fitted model. This process produced correlations between measured and predicted values of ρ^em=0.78 (emission) and ρ^ex=0.69 (excitation).
Based on this analysis, the contribution of the A and B functional groups to the fluorescence of the styryl product is quantified using the fitted coefficients αi^ex, βj^ex, […], and βj^em. Since these coefficients are on a scale without origin, in some embodiments, the invention uses the first A group and B group as a baseline, so […], β1^ex=0, and so on. Table 3 contains the model coefficients of all A and B groups for peak excitation and emission wavelength.
Greater values of αi^ex, αi^em, βj^ex, and βj^em indicate greater peak wavelength. Greater values of αi^mito and […] indicate stronger mitochondrial localization. A groups 40 and 41 were not screened for localization. A groups 2, 29, and 33 only formed fluorescent products with a single B group, so were not included in the spectral analysis.
In some embodiments, the wavelength values for peak excitation and emission were fit to the additive model λij=αi+βj+εij, where εij denotes error that is made as small as possible in the fitting process. Using least squares to minimize the function [formula] over all compounds having experimental data yields coefficient estimates αi for each A group and βj for each B group. One set of coefficient estimates is obtained for the excitation values and another set is obtained for the emission values. To predict the wavelength of a new compound formed from A and B groups i* and j* the sum αi*+βj* is used.
In some embodiments, for both the spectral and localization analysis, cross-validation was used to obtain unbiased estimates of the prediction performance. Each compound was held out in sequence, and the coefficients αi and βj were fit to the remaining compounds. These values were then used to form a prediction for the held out compound, then the predicted and experimental values were compared to obtain a measure of the accuracy of prediction. Since the wavelength values are on a continuous scale, the predicted values were compared to the experimental values using Pearson correlation coefficients. The localization values are dichotomous, so the proportion of matching predictions was used to compare predicted and experimental localization values.

SMILES	influence of A group on mitochondrial localization (mitochondria)	αi^mito (mitochondria)	estimated A group affinity coefficient ai (mitochondria)	influence of group on peak wavelength [1]	αi^em [1] [nm]	αi^ex [1] [nm]	βj^mito (mitochondria)	estimated B group affinity coefficient bj (mitochondria)	βj^em [1] [nm]	βj^ex [1] [nm]
O=Cc1c2ccccc2cc2ccccc12 [A group 34]	mitochondrial repulsion	−5.0	5.0	redder	58.8	14.1	–	–	–	–
COc1ccc2c(ccc(C)[n+]2C)c1.[I-] [B group 9]	–	–	–	strongly contribute towards the red end of the spectrum	–	–	−2.0	−2.0	35.0	−0.1
Cc1cc[n+](C)c(C)c1.[I-] [B group 11]	–	–	–	–	–	–	2.1	2.1	−4.1	−4.2
COc1ccc(C=O)cc1O [A group 15]	–	−0.6	−0.6	–	−33.1	−46.9	–	–	–	–
O=Cc1ccccc1Br [A group 3]	–	5.0	5.0	–	46.3	35.7	–	–	–	–
CN(C)c1ccc(C=O)cc1 [A group 19]	–	−0.2	−0.2	strongly contribute towards the red end of the spectrum	49.6	26.0	–	–	–	–
O=Cc1c(F)c(F)c(F)c(F)c1F [A group 31]	–	5.0	5.0	–	6.9	−22.4	–	–	–	–
COc1ccc(C=O)cc1OC [A group 11]	–	5.0	5.0	–	−26.7	−14.3	–	–	–	–
O=CCc1ccccc1 [A group 1]	–	−0.2	−0.2	–	0.0	0.0	–	–	–	–
Cc1cccc[n+]1C.[I-] [B group 3]	–	–	–	–	–	–	4.2	4.2	−2.7	−12.7
Cc1ccc2ccccc2[n+]1C.[I-] [B group 8]	–	–	–	strongly contribute towards the red end of the spectrum	–	–	0.4	0.4	64.8	53.0
O=Cc1cccc2ccccc12 [A group 32]	–	5.0	5.0	–	−15.0	−36.1	–	–	–	–
O=Cc1ccc([N+](=O)[O-])cc1 [A group 22]	–	5.0	5.0	the far red shift is not observed	−10.3	−52.8	–	–	–	–
COc1ccccc1C=O [A group 9]	–	5.0	5.0	–	−17.6	−36.7	–	–	–	–
O=CC=Cc1ccccc1[N+](=O)[O-] [A group 36]	–	5.0	5.0	the far red shift is not observed	3.8	−25.3	–	–	–	–
O=Cc1ccc(O)cc1 [A group 16]	–	−1.9	−1.9	–	−24.8	−36.3	–	–	–	–
Cc1ccccc1C=O [A group 7]	–	5.0	5.0	–	38.5	−44.1	–	–	–	–
O=Cc1ccc2c(c1)Cc1ccccc1-2 [A group 28]	–	−5.0	−5.0	–	44.9	2.4	–	–	–	–
Cc1ccc(C=O)cc1 [A group 8]	–	5.0	5.0	–	38.5	10.9	–	–	–	–
COc1ccc(C=O)cc1 [A group 10]	–	1.3	1.3	–	−23.7	8.1	–	–	–	–
